The source of these data is patent US10730887B2, “Compound containing tricyclic heteroaryl group” (Hangzhou Innogate Pharma Co., Ltd., priority 2016, dated 2020).

The structures appear in SMILES notation.

One data set concerns the target SYK (Homo sapiens, UniProt P43405). Kind of data set: Syk kinase activity inhibition, Caliper mobility shift assay. The format is biochemical. The method, then:
SYK protein kinase activity was determined using the Caliper mobility shift assay. The compound was dissolved in DMSO and diluted with kinase buffer (20 mM HEPES, 0.01% Triton X-100, 5 mM MgCl2, 1 mM MnCl2, 2 mM DTT), and 5 μL of 5 times final concentration was added to the 384-well plate Compound (10% DMSO). After adding 10 μL of 2.5-fold enzyme (with SYK) solution, incubate for 10 minutes at room temperature, and then add 10 μL of 2.5-fold substrate (Peptide FAM-P22 and ATP) solution. Incubate at 28° C. for 30 minutes, then stop the reaction by adding 25 μL of stop solution (100 mM HEPES, 0.015% Brij-35, 0.2% Coating Reagent #13, 50 mM EDTA, pH 7.5). Conversion rate data was read on a Caliper EZ Reader II (Caliper Life Sciences) The conversion rate was converted into inhibition rate data (% inhibition rate=(max−conversion rate)/(max−min)*100). Where max is the conversion of the DMSO control and min is the conversion of the enzyme-free control. Curves were plotted with compound concentration and inhibition rate on the horizontal and vertical coordinates, and the curve was fitted using XLFit excel add-in version 4.3.1 software and IC50 was calculated.

A further data set deals with Jak1 (Homo sapiens, UniProt P23458). The data set can be described thus: Jak1 kinase activity inhibition, Caliper Reader. The format is biochemical. The method, then:
(§1) Kinase JAk1 and Jak2 enzyme inhibition IC50 evaluation experiments: The buffer was configured with the following components: 50 mM HEPES, pH 7.5, 0.00015% Brij-35. Compounds were placed in a concentration gradient in 100% DMSO and diluted to 10% DMSO with buffer and added to 384 well plates. For example, when the initial concentration of the compound is […], it is made into 12.5 μM with 100% DMSO, and diluted by 5 or 6 concentrations, and then diluted 10-fold with buffer to prepare an intermediate dilution of the compound containing 10% DMSO. Transfer 5 μL, to 384-well plate. The Jak1 and Jak2 enzymes were diluted to the optimal concentration with the following buffer: 50 mM HEPES, pH 7.5, 0.00015% Brij-35, 2 mM DTT. Transfer 10 μL to a 384-well plate and incubate with the compound for 10-15 minutes. The substrate was diluted to the optimal concentration with the following buffer: 50 mM HEPES, pH 7.5, 0.00015% Brij-35, 10 mM MgCl2, adenosine triphosphate at Km. The reaction was initiated by adding 10 μL to a 384-well plate and reacted at 28° C. for 1 hour. The conversion rate was then read using a Caliper Reader and the inhibition rate was calculated. The formula is as follows: Percent inhibition=(max−conversion)/(max−min)*100. Where max is the conversion of the DMSO control and min is the conversion of the enzyme-free control. Fit the IC50 value with XLFit excel add-in version 5.4.0.8. Fitting formula: Y=Bottom+(Top−Bottom)/(1+(IC50/X)^HillSlope).

The target of another data set is Jak2 (Homo sapiens, UniProt O60674). Kind of data set: Jak2 kinase activity inhibition, Caliper Reader. Type of data set: biochemical. The method, then: as §1
Data set [1] is described as follows: Pharmacokinetic study in mice, intragastric administration. The format is in vivo. Conditions: mouse, male ICR mice, PO dose 5 mg/kg, plasma. The method, then: Instrument: API4000+LC/MS instrument manufactured by AB Sciex. All measurement data was collected and processed by Analyst 1.6.3 software, and data was calculated and processed by Microsoft Excel. Using the DAS 3.2.8 software, the statistical moment method was used to calculate the pharmacokinetic parameters. t mainly includes kinetic parameters Tmax, T½, Cmax, AUC(0-t) and the like Column: ACQUITY UPLC BEH C18 (2.1 mm×50 mm, 1.7 μm), column temperature 40° C.; mobile phase A is water (0.1% formic acid+5 mM ammonium acetate), mobile phase B is acetonitrile (0.1% acetic acid). The flow rate was 0.30 ml/min and the isocratic elution of 90% B was maintained for 1.5 minutes. Injection volume: 5 μL.
Animals: 12 male ICR mice, weighing 22-26 g, were used after 2 days of feeding in the laboratory of the experimental animal center. They were fasted 12 hours before the administration and 4 hours after the administration, and were free to drink during the test. Mice were randomly divided into four groups of 3 animals each. After intragastric administration, blood samples were taken at two different time points in each group.
Solvent: 0.5% Methylcellulose (aqueous solution containing 0.4% Tween 80). Formulation of intragastric administration solution. The compound is accurately weighed, added to the solvent, and sonicated at room temperature for 5 minutes to completely dissolve the drug to prepare a drug solution of 0.33 mg/ml.
Drug sample: A representative compound of the structure represented by the patent formula (I) of the present invention generally adopts a plurality of samples having similar structures (molecular weight difference of more than 2 units), accurately weighed, and administered together (cassette PK). This allows multiple compounds to be screened simultaneously and their oral absorption rates compared. Single drug administration was also used to study the pharmacokinetics of drug samples in mice.
Blood was taken from the eyelids at 0.25, 0.5, 1, 2, 4, 8, 12, and 24 hours after intragastric administration. In the heparin-treated tube, the supernatant was centrifuged for LC-MS/MS analysis.
Accurately weigh the compounds to different concentrations, perform quantitative analysis on the mass spectrometer to establish a standard curve, and then test the concentration of the compound in the above plasma to obtain the concentration of the compound at different time points. All the measured data were collected and processed by the relevant software, and the statistical moment method was used to calculate the pharmacokinetic parameters (mainly including the kinetic parameters Tmax, T1/2, Cmax, AUC(0-t), etc.).

In another data set the target is T1, FLT3 (Homo sapiens, UniProt P36888).
T1 sequence (P36888 27-993): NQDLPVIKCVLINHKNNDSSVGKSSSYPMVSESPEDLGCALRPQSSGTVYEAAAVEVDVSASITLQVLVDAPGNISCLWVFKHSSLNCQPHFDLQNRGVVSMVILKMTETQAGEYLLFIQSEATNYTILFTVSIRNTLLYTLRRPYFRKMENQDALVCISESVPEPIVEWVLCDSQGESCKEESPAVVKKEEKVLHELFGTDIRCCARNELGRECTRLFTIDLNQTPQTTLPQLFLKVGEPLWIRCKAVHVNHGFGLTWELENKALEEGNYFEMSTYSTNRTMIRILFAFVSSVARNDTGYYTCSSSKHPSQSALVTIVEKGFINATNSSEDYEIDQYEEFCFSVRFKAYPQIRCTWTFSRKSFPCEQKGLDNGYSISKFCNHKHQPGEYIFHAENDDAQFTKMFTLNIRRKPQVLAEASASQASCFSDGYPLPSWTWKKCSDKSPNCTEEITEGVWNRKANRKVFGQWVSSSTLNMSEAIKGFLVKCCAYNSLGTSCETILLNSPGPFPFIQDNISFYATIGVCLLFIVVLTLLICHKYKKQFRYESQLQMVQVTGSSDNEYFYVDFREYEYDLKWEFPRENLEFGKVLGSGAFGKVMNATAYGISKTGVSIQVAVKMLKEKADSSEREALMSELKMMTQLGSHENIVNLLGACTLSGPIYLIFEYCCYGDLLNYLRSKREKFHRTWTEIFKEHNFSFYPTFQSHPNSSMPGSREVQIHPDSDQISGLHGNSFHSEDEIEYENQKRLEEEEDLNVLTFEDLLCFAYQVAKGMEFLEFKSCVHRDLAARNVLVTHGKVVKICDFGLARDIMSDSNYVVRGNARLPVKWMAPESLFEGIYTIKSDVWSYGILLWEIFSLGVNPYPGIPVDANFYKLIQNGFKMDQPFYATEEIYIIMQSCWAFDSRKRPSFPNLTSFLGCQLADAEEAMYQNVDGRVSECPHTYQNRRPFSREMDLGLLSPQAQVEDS
The data set can be described thus: FLT3 kinase activity inhibition, Caliper mobility shift assay. The format is biochemical. As to the method:
FLT3 protein kinase activity was measured using the Caliper mobility shift assay. The compound was dissolved in DMSO and diluted with a kinase buffer (50 mM HEPES, pH 7.5, 0.0015% Brij-35, 2 mM DTT), and 5 μL of a 5-fold final concentration of the compound (10% DMSO) was added to a 384-well plate. After adding 10 μL of 2.5-fold FLT3 enzyme solution, incubate for 10 minutes at room temperature, and then add 10 μL of a 2.5-fold substrate (FAM-labeled polypeptide and ATP) solution. After incubation at 28° C. for 60 minutes, the reaction was stopped by adding 25 μL of stop solution (100 mM HEPES, 0.015% Brij-35, 0.2% Coating Reagent #3, 50 mM EDTA, pH 7.5). Conversion rate data was read on a Caliper EZ Reader II (Caliper Life Sciences). The conversion rate was converted into inhibition rate data (% inhibition rate=(max−conversion rate)/(max−min)*100). Where max is the conversion of the DMSO control and min is the conversion of the enzyme-free control Curves were plotted with compound concentration and inhibition rate on the horizontal and vertical coordinates, and the curve was fitted using XLFit excel add-in version 4.3.1 software and IC50 was calculated.

Jak2, sequence (O60674 whole entry, species assumed): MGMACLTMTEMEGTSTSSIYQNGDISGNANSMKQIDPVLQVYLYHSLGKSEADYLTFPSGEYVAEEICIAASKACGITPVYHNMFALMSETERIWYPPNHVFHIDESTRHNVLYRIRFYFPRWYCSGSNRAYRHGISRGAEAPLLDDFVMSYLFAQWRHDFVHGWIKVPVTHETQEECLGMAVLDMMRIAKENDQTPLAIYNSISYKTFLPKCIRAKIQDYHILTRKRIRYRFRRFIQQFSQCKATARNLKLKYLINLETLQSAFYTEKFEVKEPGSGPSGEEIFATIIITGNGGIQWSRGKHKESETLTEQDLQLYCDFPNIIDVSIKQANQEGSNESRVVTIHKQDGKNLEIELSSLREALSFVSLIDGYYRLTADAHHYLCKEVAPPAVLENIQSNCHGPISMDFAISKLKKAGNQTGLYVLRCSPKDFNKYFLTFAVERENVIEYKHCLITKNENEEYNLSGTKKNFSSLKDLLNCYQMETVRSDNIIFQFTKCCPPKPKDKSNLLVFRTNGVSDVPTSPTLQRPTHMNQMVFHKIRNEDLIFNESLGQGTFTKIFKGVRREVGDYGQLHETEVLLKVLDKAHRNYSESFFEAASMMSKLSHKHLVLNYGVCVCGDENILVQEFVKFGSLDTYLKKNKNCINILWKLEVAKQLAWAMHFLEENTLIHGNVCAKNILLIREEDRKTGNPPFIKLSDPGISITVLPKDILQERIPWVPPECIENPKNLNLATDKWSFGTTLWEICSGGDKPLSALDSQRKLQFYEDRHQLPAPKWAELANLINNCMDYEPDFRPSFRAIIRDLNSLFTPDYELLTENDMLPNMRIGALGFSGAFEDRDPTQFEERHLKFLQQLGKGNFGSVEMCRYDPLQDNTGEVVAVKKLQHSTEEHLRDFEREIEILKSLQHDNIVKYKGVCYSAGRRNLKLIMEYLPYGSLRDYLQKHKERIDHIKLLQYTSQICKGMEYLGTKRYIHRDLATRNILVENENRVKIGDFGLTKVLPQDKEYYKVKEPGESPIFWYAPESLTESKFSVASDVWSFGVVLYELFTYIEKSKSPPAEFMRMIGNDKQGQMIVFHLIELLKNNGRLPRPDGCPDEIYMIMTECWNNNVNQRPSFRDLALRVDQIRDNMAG
Jak1, sequence (P23458 whole entry, species assumed): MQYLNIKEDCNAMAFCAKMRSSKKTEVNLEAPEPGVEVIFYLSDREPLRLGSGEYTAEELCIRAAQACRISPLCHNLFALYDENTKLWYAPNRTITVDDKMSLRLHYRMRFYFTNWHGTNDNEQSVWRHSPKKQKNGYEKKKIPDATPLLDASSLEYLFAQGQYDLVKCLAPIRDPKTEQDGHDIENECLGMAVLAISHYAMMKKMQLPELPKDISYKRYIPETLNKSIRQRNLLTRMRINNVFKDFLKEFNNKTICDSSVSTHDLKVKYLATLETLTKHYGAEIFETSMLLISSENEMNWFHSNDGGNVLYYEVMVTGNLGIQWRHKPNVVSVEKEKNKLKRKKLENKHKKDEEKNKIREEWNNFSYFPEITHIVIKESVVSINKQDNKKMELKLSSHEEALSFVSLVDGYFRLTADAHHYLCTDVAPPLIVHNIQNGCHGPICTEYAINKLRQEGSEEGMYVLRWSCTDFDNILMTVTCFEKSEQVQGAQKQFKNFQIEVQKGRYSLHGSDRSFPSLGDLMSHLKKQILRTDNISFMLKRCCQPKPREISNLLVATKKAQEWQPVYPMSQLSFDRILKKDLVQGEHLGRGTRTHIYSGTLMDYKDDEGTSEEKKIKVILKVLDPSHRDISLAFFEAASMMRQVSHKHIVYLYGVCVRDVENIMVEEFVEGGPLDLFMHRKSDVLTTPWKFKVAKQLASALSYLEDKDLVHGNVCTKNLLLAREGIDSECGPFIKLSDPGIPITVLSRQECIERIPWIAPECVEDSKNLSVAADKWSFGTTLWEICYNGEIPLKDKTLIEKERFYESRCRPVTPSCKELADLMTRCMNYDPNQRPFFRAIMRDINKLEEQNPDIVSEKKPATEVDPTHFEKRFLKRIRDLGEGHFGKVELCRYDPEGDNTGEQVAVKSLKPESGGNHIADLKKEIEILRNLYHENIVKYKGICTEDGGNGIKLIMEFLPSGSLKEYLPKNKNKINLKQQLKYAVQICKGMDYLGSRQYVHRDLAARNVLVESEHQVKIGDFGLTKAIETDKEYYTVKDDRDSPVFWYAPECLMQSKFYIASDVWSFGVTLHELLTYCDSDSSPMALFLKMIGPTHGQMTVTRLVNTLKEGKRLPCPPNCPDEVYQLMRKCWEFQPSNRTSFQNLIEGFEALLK

Regarding `CCS(=O)(=O)N1CCN2c3ccc(Nc4ncc(C(N)=O)c(NC5CC5)n4)cc3OC[C@H]2C1` [Compound C1R], the IC50 at SYK is < 0.01 µM; on Jak1, < 0.1 µM; against Jak2, < 0.01 µM.

For `CN1CCC(N2CCN3c4ccc(Nc5ncc(C(N)=O)c(NC6CC6)n5)cc4OC[C@H]3C2)CC1` [Compound C2R], the IC50 on SYK was < 0.05 µM; on Jak1 it was < 0.5 µM; on Jak2, < 0.02 µM.

`CC(=O)N1CCN2c3ccc(Nc4ncc(C(N)=O)c(NC5CC5)n4)cc3OC[C@H]2C1` [Compound C3R]: the IC50 on SYK is < 0.05 µM; on Jak1, < 0.1 µM; at Jak2, < 0.01 µM.

Turning to `NC(=O)c1cnc(Nc2ccc3c(c2)OC[C@H]2CN(C4CCOCC4)CCN32)nc1NC1CC1` [Compound C4R], the IC50 at SYK is < 0.05 µM; on Jak1, < 0.5 µM; against Jak2, < 0.02 µM.

On to `CN1CCN2c3ccc(Nc4ncc(C(N)=O)c(NC5CC5)n4)cc3OC[C@H]2C1` [Compound C5R], for which the IC50 on SYK was < 0.05 µM; at Jak1, < 0.1 µM; against Jak2 it was < 0.01 µM.

Consider `NC(=O)c1cnc(Nc2ccc3c(c2)OC[C@H]2CN(C(=O)C(F)(F)F)CCN32)nc1NC1CC1` [Compound C6R], for which the IC50 on SYK is < 0.05 µM; against Jak1 it was < 0.5 µM; against Jak2 it was < 0.05 µM.

In the case of `NC(=O)c1cnc(Nc2ccc3c(c2)OC[C@H]2CN(S(=O)(=O)C4CC4)CCN32)nc1NC1CC1` [Compound C10R], the IC50 on SYK is < 0.01 µM. The IC50 on Jak2 was < 0.01 µM. Further, in data set [1], the Cmax was 451 ng/mL, the Tmax stood at 0.5 h and the half-life was 2.41 h. For the same compound, the AUC(0-t) in data set [1] (read-out: AUC(0-24)) was determined as 1240 ng·h/mL.

With `CCc1nc(C(N)=O)c(Nc2ccc3c(c2)OC[C@H]2COCCN32)nc1NC1CCOCC1` [Compound D2R], the IC50 on FLT3 is < 0.01 µM.

`CCc1nc(C(N)=O)c(Nc2ccc3c(c2)OC[C@@H]2COCCN32)nc1NC1CCOCC1` [Compound D2S]: at FLT3, the IC50 was < 0.01 µM.

Consider `CCc1nc(C(N)=O)c(Nc2ccc3c(c2)OC[C@H]2CN(CC(F)(F)F)CCN32)nc1NC1CCOCC1` [Compound D3R], for which the IC50 on FLT3 was < 0.01 µM.

As for `CCc1nc(C(N)=O)c(Nc2ccc3c(c2)OC[C@H]2CN(C4CC4)CCN32)nc1NC1CCOCC1` [Compound D4R], the IC50 on FLT3 was < 0.001 µM.

Turning to `CCc1nc(C(N)=O)c(Nc2ccc3c(c2)OC[C@@H]2CN(C)CC(=O)N32)nc1NC1CCOCC1` [Compound D5S], the IC50 on FLT3 was < 0.01 µM.
